Source: ChEMBL document CHEMBL4190263, “Bacterial Production of a Pederin Analogue by a Free-Living Marine Alphaproteobacterium” (2017)

What was measured:
Format in all cases: functional
[1] = test system: A549; assay: Antiproliferative activity against human A549 cells assessed as growth inhibition after 72 hrs by SRB assay; conditions: A549, 72 h
[2] = test system: HT-29; assay: Antiproliferative activity against human HT-29 cells assessed as growth inhibition after 72 hrs by SRB assay; conditions: HT-29, 72 h
[3] = test system: MDA-MB-231; assay: Antiproliferative activity against human MDA-MB-231 cells assessed as growth inhibition after 72 hrs by SRB assay; conditions: MDA-MB-231, 72 h
[4] = test system: PSN1; assay: Antiproliferative activity against human PSN1 cells assessed as growth inhibition after 72 hrs by SRB assay; conditions: PSN1, 72 h

Measured: GI50

C=C1C[C@](OC)([C@H](O)C(=O)N[C@@H](OC)[C@@H]2C[C@@H](O)C(C)(C)[C@@H](C[C@@H](CO)OC)O2)O[C@H](C)[C@@H]1C
2 to 2.9 nM: [1] | [2] | [3] | [4]
